Each structure is given as a SMILES string.

For orientation: IC50 means the point on the concentration scale where inhibition reaches its midpoint. Low readings indicate inhibition by little substance, high ones a need for much substance.

The test addresses interaction between p53 and MDM2 proteins (Homo sapiens, UniProt Q00987). In words: HTRF assay of inhibition of p53-MDM2 interaction (GST-MDM2 / biotinylated p53 peptide). A general note: Time-resolved FRET reads energy transfer from a long-lived donor to a nearby acceptor.

Sequence of interaction between p53 and MDM2 proteins (Q00987 whole entry): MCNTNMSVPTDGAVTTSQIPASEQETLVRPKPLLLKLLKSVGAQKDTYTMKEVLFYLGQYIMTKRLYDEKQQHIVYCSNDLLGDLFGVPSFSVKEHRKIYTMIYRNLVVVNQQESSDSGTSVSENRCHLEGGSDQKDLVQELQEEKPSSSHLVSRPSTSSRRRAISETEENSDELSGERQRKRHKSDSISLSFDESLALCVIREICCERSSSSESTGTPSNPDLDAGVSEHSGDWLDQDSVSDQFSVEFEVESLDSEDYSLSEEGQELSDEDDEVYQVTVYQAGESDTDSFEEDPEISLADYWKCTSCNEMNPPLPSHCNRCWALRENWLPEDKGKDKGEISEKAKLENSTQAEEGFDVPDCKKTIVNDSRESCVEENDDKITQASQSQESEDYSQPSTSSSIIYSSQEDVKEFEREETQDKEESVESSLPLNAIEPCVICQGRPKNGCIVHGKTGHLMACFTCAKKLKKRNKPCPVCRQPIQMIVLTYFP
Experimental: The ability of the compounds to inhibit the interaction between p53 and MDM2 proteins was measured by an HTRF (homogeneous time-resolved fluorescence) assay in which recombinant GST-tagged MDM2 binds to a peptide that resembles the MDM2-interacting region of p53. Binding of GST-MDM2 protein and p53-peptide (biotinylated on its N-terminal end) is registered by the FRET (fluorescence resonance energy transfer) between Europium (Eu)-labeled anti-GST antibody and streptavidin-conjugated Allophycocyanin (APC).
Test is performed in black flat-bottom 384-well plates (Costar) in a total volume of 40 uL containing: 90 nM biotinylate peptide, 160 ng/ml GST-MDM2, 20 nM streptavidin-APC (PerkinElmerWallac), 2 nM Eu-labeled anti-GST-antibody (PerkinElmerWallac), 0.2% bovine serum albumin (BSA), 1 mM dithiothreitol (DTT) and 20 mM Tris-borate saline (TBS) buffer as follows: Add 10 uL of GST-MDM2 (640 ng/ml working solution) in reaction buffer to each well. […] Incubate at 37° C. for 1 h. Add 20 uL streptavidin-APC and Eu-anti-GST antibody mixture (6 nM Eu-anti-GST and 60 nM streptavidin-APC working solution) in TBS buffer with 0.2% BSA, shake at room temperature for 30 minutes and read using a TRF-capable plate reader at

In turn, `COc1cc(C(=O)O)ccc1N1CN2[C@@H](CC(C)(C)C)[C@@]3(C(=O)Nc4cc(Cl)ccc43)[C@@H](c3cccc(Cl)c3F)[C@@H]2C1=O` [Example 21, chiral 4-((3S,5′R,7′R,7a′S)-6-chloro-7′-(3-chloro-2-fluorophenyl)-5′-neopentyl-1′,2-dioxo-7′,7a′-dihydrospiro[indoline-3,6′-pyrrolo[1,2-c]imidazole]-2′(1′H,3′H,5′H)-yl)-3-methoxybenzoic acid] yielded an IC50 of 6 nM.
Turning to `COc1cc(N2CN3[C@@H](CC(C)(C)C)[C@@]4(C(=O)Nc5cc(Cl)ccc54)[C@@H](c4cccc(Cl)c4F)[C@@H]3C2=O)ccc1C(=O)O` (racemic) [Example 18, Rac 4-((3R,5′S,7′S,7a′R)-6-chloro-7′-(3-chloro-2-fluorophenyl)-5′-neopentyl-1′,2-dioxo-7′,7a′-dihydrospiro[indoline-3,6′-pyrrolo[1,2-c]imidazole]-2′(1′H,3′H,5′H)-yl) 2-methoxybenzoic acid], half-maximal inhibition (IC50) required 7 nM.
As for `COc1cc(N2CN3[C@@H](CC(C)(C)C)[C@@]4(C(=O)N(CO)c5cc(Cl)ccc54)[C@@H](c4cccc(Cl)c4F)[C@@H]3C2=O)ccc1C(N)=O` [Example 31], the figure is 12 nM; as for `COc1cc(N2CN3[C@@H](CC(C)(C)C)[C@@]4(C(=O)Nc5cc(Cl)ccc54)[C@@H](c4cccc(Cl)c4F)[C@@H]3C2=O)ccc1C(N)=O` (single isomer, unassigned) [Example 25], 4 nM.
The same measure for `CC(C)(C)C[C@H]1N2CN(c3ccc(C(=O)O)cc3)C(=O)[C@@H]2[C@@H](c2cccc(Cl)c2F)[C@@]12C(=O)Nc1cc(Cl)ccc12` [Example 30, chiral 4-((3S,5′R,7′R,7a′S)-6-chloro-7′-(3-chloro-2-fluorophenyl)-5′-neopentyl-1′,2-dioxo-7′,7a′-dihydrospiro[indoline-3,6′-pyrrolo[1,2-c]imidazole]-2′(1′H,3′H,5′H)-yl)benzoic acid]: 128 nM; for `CC(C)(C)CC1N2CN(CC(=O)O)C(=O)C2C(c2cccc(Cl)c2F)C12C(=O)Nc1cc(Cl)ccc12` (racemic) [Example 37, rac of 2-((3R,5′S,7′S,7a′R)-6-chloro-7′-(3-chloro-2-fluorophenyl)-5′-neopentyl-1′,2-dioxo-7′,7a′-dihydrospiro[indoline-3,6′-pyrrolo[1,2-c]imidazole]-2′(1′H,3′H,5′H)-yl)acetic acid]: 13 nM; for `COc1cc(N2CN3[C@@H](CC(C)(C)C)[C@@]4(C(=O)N(CO)c5cc(Cl)ccc54)[C@@H](c4cccc(Cl)c4F)[C@@H]3C2=O)ccc1C(=O)O` (racemic) [Example 16, Rac 4-((3R,5′S,7′S,7a′R)-6-chloro-7′-(3-chloro-2-fluorophenyl)-1-(hydroxymethyl)-5′-neopentyl-1′,2-dioxo-7′,7a′-dihydrospiro[indoline-3,6′-pyrrolo[1,2-c]imidazole]-2′(1′H,3′H,5′H)-yl)-2-methoxybenzoic acid]: 25 nM.
The same measure for `COc1cc(C(N)=O)ccc1N1CN2[C@@H](CC(C)(C)C)[C@@]3(C(=O)Nc4cc(Cl)ccc43)[C@@H](c3cccc(Cl)c3F)[C@@H]2C1=O` [Example 22, chiral 4-((3R,5′S,7′S,7a′R)-6-chloro-7′-(3-chloro-2-fluorophenyl)-5′-neopentyl-1′,2-dioxo-7′,7a′-dihydrospiro[indoline-3,6′-pyrrolo[1,2-c]imidazole]-2′(1′H,3′H,5′H)-yl)-3-methoxybenzamide]: 5 nM.

The record behind these values is patent US20120071499A1, “Substituted Spiro[3H-Indole-3,6'(5'H)-[1H]Pyrrolo[1,2c]Imidazole-1',2(1H,2'H)-diones” (priority 2010, published 2012).
